Data reported in patent US11479539B2, “Small molecule modulators of the BTB domain of Keap1” (MedImmune Limited, priority 2017, dated 2022).

These molecules were tested against Keap1 (Homo sapiens (Human), UniProt Q14145) (assay: HEK293 ARE luciferase assay). Details: HEK-293 ARE firefly luciferase transiently transfected cells; 18 h incubation; mean of 1 to 20 individual measurements.
Type: cell-based
How it was run: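 Keap1 inhibition read as Nrf2-driven luciferase rise: compounds dosed in 10 points up to 100 μM (0.3% DMSO) on HEK-293 ARE luciferase cells, 10,000/well, 18 h at 37 °C, then SteadyGlo luminescence. Scaled between DMSO vehicle and 30 μM tBHQ; values average 1-20 runs.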

Keap1, sequence (Q14145 whole entry): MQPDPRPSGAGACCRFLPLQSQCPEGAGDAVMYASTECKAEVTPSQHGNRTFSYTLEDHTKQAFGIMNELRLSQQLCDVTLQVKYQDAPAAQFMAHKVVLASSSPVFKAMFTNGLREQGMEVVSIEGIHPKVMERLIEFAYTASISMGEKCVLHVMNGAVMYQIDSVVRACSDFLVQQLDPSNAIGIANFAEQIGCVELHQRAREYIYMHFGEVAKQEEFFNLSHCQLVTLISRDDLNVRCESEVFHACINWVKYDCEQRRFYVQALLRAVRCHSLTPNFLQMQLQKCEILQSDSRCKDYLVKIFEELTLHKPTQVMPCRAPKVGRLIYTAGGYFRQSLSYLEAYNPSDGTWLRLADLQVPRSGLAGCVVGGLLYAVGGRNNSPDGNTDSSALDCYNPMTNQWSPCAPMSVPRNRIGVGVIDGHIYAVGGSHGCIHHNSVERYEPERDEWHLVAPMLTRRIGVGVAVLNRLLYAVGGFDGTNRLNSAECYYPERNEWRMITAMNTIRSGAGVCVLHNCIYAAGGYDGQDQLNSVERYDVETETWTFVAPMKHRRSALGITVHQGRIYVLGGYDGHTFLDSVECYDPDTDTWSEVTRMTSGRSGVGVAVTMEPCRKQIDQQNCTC

| Compound | EC50 [nM] |
| --- | --- |
| CO[C@]1(c2ncc(F)cc2-c2ccc(=O)n(C)c2)C=C(C#N)C(=O)C(C)(C)C1 [Compound 74, (S)-3-[5-fluoro-3-(1-methyl-6-oxo-3-pyridyl)-2-pyridyl]-3-methoxy-5,5-dimethyl-6-oxo-cyclohexene-1-carbonitrile] | 15 |
| CO[C@]1(c2ncc(F)cc2-c2ccns2)C=C(C#N)C(=O)C(C)(C)C1 [Compound 80, (S)-3-(5-fluoro-3-isothiazol-5-yl-2-pyridyl)-3-methoxy-5,5-dimethyl-6-oxo-cyclohexene-1-carbonitrile] | 2 |
| COC1(c2ncc(F)cc2-c2cncc(S(C)(=O)=O)c2)C=C(C#N)C(=O)C(C)(C)C1 (stereo not drawn) [Compound 96, 3-(5-fluoro-5′-(methylsulfonyl)-[3,3′-bipyridin]-2-yl)-3-methoxy-5,5-dimethyl-6-oxocyclohex-1-ene-1-carbonitrile] | 7 |
| CC#Cc1cccc(C2(OC)C=C(C#N)C(=O)C(C)(C)C2)n1 (stereo not drawn) [Compound 103, 3-Methoxy-5,5-dimethyl-6-oxo-3-(6-(prop-1-ynyl)pyridin-2-yl)cyclohex-1-enecarbonitrile] | 77 |
| COC1(c2cccc(-c3c(C)noc3C)n2)C=C(C#N)C(=O)C(C)(C)C1 (stereo not drawn) [Compound 105, 3-(6-(3,5-dimethylisoxazol-4-yl)pyridin-2-yl)-3-methoxy-5,5-dimethyl-6-oxocyclohex-1-ene-1-carbonitrile] | 36 |
| COC1(c2cccc(-c3ccnn3C)n2)C=C(C#N)C(=O)C(C)(C)C1 (stereo not drawn) [Compound 106, 3-methoxy-5,5-dimethyl-3-(6-(1-methyl-1H-pyrazol-5-yl)pyridin-2-yl)-6-oxocyclohex-1-ene-1-carbonitrile] | 120 |
| COC1(c2ncccc2Br)CC(C)(C)C(=O)C(C#N)=C1C (stereo not drawn) [Compound 108, 3-(3-bromo-2-pyridyl)-3-methoxy-2,5,5-trimethyl-6-oxo-cyclohexene-1-carbonitrile] | 1900 |
| COC1(c2cccc(C3CC3)n2)C=C(C#N)C(=O)C(C)(C)C1 (stereo not drawn) [Compound 109, 3-(6-cyclopropylpyridin-2-yl)-3-methoxy-5,5-dimethyl-6-oxocyclohex-1-ene-1-carbonitrile] | 185 |
| COC1(c2cccc(N3CCOCC3)n2)C=C(C#N)C(=O)C(C)(C)C1 (stereo not drawn) [Compound 110, 3-methoxy-5,5-dimethyl-3-[6-(morpholin-4-yl)pyridin-2-yl]-6-oxocyclohex-1-ene-1-carbonitrile] | 109 |
| COC1(c2cccc(-c3cnn(C)c3)n2)C=C(C#N)C(=O)C(C)(C)C1 (stereo not drawn) [Compound 111, 3-methoxy-5,5-dimethyl-3-[6-(1-methyl-1H-pyrazol-4-yl)pyridin-2-yl]-6-oxocyclohex-1-ene-1-carbonitrile] | 65 |
| COC1(c2cc(-c3cnn(C)c3)ccn2)C=C(C#N)C(=O)C(C)(C)C1 (stereo not drawn) [Compound 112, 3-methoxy-5,5-dimethyl-3-[4-(1-methyl-1H-pyrazol-4-yl)pyridin-2-yl]-6-oxocyclohex-1-ene-1-carbonitrile] | 371 |
| COC1(c2ccc(Br)cn2)C=C(C#N)C(=O)C(C)(C)C1 (stereo not drawn) [Compound 113, 3-(5-bromopyridin-2-yl)-3-methoxy-5,5-dimethyl-6-oxocyclohex-1-ene-1-carbonitrile] | 343 |
| COC1(c2ncccc2Cl)C=C(C#N)C(=O)C(C)(C)C1 (stereo not drawn) [Compound 114, 3-(3-chloropyridin-2-yl)-3-methoxy-5,5-dimethyl-6-oxocyclohex-1-ene-1-carbonitrile] | 235 |
| COC1(c2ccc(-c3cnn(C)c3)cn2)C=C(C#N)C(=O)C(C)(C)C1 (stereo not drawn) [Compound 115, 3-methoxy-5,5-dimethyl-3-[5-(1-methyl-1H-pyrazol-4-yl)pyridin-2-yl]-6-oxocyclohex-1-ene-1-carbonitrile] | 106 |
| COC1(c2cccc(-c3cccnc3)n2)C=C(C#N)C(=O)C(C)(C)C1 (stereo not drawn) [Compound 116, 3-([2,3′-bipyridin]-6-yl)-3-methoxy-5,5-dimethyl-6-oxocyclohex-1-ene-1-carbonitrile] | 382 |
| COC1(c2cccc(-c3cncnc3)n2)C=C(C#N)C(=O)C(C)(C)C1 (stereo not drawn) [Compound 117, 3-methoxy-5,5-dimethyl-6-oxo-3-[6-(pyrimidin-5-yl)pyridin-2-yl]cyclohex-1-ene-1-carbonitrile] | 34 |
| COC1(c2cccc(-c3ccccc3F)n2)C=C(C#N)C(=O)C(C)(C)C1 (stereo not drawn) [Compound 118, 3-[6-(2-fluorophenyl)pyridin-2-yl)-3-methoxy-5,5-dimethyl-6-oxocyclohex-1-ene-1-carbonitrile] | 355 |
| COc1ccccc1-c1cccc(C2(OC)C=C(C#N)C(=O)C(C)(C)C2)n1 (stereo not drawn) [Compound 119, 3-methoxy-3-[6-(2-methoxyphenyl)pyridin-2-yl]-5,5-dimethyl-6-oxocyclohex-1-ene-1-carbonitrile] | 141 |
| COc1ccccc1-c1cccc(C2(OC)C=C(C#N)C(=O)C(C)(C)C2)n1 (stereo not drawn) [Compound 120, 3-methoxy-3-[6-(2-methoxyphenyl)pyridin-2-yl]-5,5-dimethyl-6-oxocyclohex-1-ene-1-carbonitrile] | 245 |
| COC1(c2ncccc2C(F)(F)F)C=C(C#N)C(=O)C(C)(C)C1 (stereo not drawn) [Compound 122, 3-methoxy-5,5-dimethyl-6-oxo-3-[3-(trifluoromethyl)pyridin-2-yl]cyclohex-1-ene-1-carbonitrile] | 43 |

| Compound | EC50 [nM] |
| --- | --- |
| COC1(c2ccc(F)cn2)C=C(C#N)C(=O)C(C)(C)C1 (stereo not drawn) [Compound 123, 3-(5-fluoropyridin-2-yl)-3-methoxy-5,5-dimethyl-6-oxocyclohex-1-ene-1-carbonitrile] | 61 |
| COC1(c2ncccc2C(F)F)C=C(C#N)C(=O)C(C)(C)C1 (stereo not drawn) [Compound 124, 3-[3-(difluoromethyl)pyridin-2-yl]-3-methoxy-5,5-dimethyl-6-oxocyclohex-1-ene-1-carbonitrile] | 27 |
| COC1(c2cccc(-c3nccs3)n2)C=C(C#N)C(=O)C(C)(C)C1 (stereo not drawn) [Compound 125, 3-methoxy-5,5-dimethyl-6-oxo-3-[6-(1,3-thiazol-2-yl)pyridin-2-yl]cyclohex-1-ene-1-carbonitrile] | 236 |
| COC1(c2cccc(-c3cnn(C)c3)n2)C=C(C#N)C(=O)C2(CC2)C1 (stereo not drawn) [Compound 126, 7-methoxy-7-[6-(1-methyl-1H-pyrazol-4-yl)pyridin-2-yl]-4-oxospiro[2.5]oct-5-ene-5-carbonitrile] | 85 |
| COC1(c2cccc(-c3cncnc3)n2)C=C(C#N)C(=O)C2(CC2)C1 (stereo not drawn) [Compound 127, 7-methoxy-4-oxo-7-[6-(pyrimidin-5-yl)pyridin-2-yl]spiro[2.5]oct-5-ene-5-carbonitrile] | 267 |
| COC1(c2cccc(-c3cnc(C)nc3)n2)C=C(C#N)C(=O)C2(CC2)C1 (stereo not drawn) [Compound 128, 7-methoxy-7-[6-(2-methylpyrimidin-5-yl)pyridin-2-yl]-4-oxospiro[2.5]oct-5-ene-5-carbonitrile] | 145 |
| COC1(c2cccc(-c3ccnn3C)n2)C=C(C#N)C(=O)C2(CC2)C1 (stereo not drawn) [Compound 129, 7-methoxy-7-[6-(1-methyl-1H-pyrazol-5-yl)pyridin-2-yl]-4-oxospiro[2.5]oct-5-ene-5-carbonitrile] | 136 |
| COC1(c2cccc(-c3c(C)noc3C)n2)C=C(C#N)C(=O)C2(CC2)C1 (stereo not drawn) [Compound 130, 7-[6-(3,5-dimethyl-1,2-oxazol-4-yl)pyridin-2-yl]-7-methoxy-4-oxospiro[2.5]oct-5-ene-5-carbonitrile] | 153 |
| COC1(c2cncc(C)n2)C=C(C#N)C(=O)C2(CC2)C1 (stereo not drawn) [Compound 131, 7-methoxy-7-(6-methylpyrazin-2-yl)-4-oxospiro[2.5]oct-5-ene-5-carbonitrile] | 464 |
| COC1(c2ncccc2C(F)F)C=C(C#N)C(=O)C2(CC2)C1 (stereo not drawn) [Compound 132, 7-[3-(difluoromethyl)pyridin-2-yl]-7-methoxy-4-oxospiro[2.5]oct-5-ene-5-carbonitrile] | 150 |
| COC1(c2ncccc2C(F)(F)F)C=C(C#N)C(=O)C2(CC2)C1 (stereo not drawn) [Compound 133, 7-methoxy-4-oxo-7-[3-(trifluoromethyl)pyridin-2-yl]spiro[2.5]oct-5-ene-5-carbonitrile] | 76 |
| COC1(c2ccccn2)C=C(C#N)C(=O)C2(CC2)C1 (stereo not drawn) [Compound 135, 7-methoxy-4-oxo-7-(pyridin-2-yl)spiro[2.5]oct-5-ene-5-carbonitrile] | 244 |
| COC1(c2ncc(F)cc2C)C=C(C#N)C(=O)C(C)(C)C1 (stereo not drawn) [Compound 137, 3-(5-fluoro-3-methylpyridin-2-yl)-3-methoxy-5,5-dimethyl-6-oxocyclohex-1-ene-1-carbonitrile] | 47 |
| COC1(c2sccc2C)C=C(C#N)C(=O)C(C)(C)C1 (stereo not drawn) [Compound 139, 3-methoxy-5,5-dimethyl-3-(3-methylthiophen-2-yl)-6-oxocyclohex-1-ene-1-carbonitrile] | 381 |
| COC1(c2nc(C)cs2)C=C(C#N)C(=O)C2(CC2)C1 (stereo not drawn) [Compound 140, 7-methoxy-7-(4-methyl-1,3-thiazol-2-yl)-4-oxospiro[2.5]oct-5-ene-5-carbonitrile] | 140 |
| COC1(c2nc(C(F)(F)F)cs2)C=C(C#N)C(=O)C(C)(C)C1 (stereo not drawn) [Compound 141, 3-methoxy-5,5-dimethyl-6-oxo-3-[4-(trifluoromethyl)-1,3-thiazol-2-yl]cyclohex-1-ene-1-carbonitrile] | 335 |
| COC1(c2nc(C)cs2)C=C(C#N)C(=O)C(C)(C)C1 (stereo not drawn) [Compound 142, 3-methoxy-5,5-dimethyl-3-(4-methyl-1,3-thiazol-2-yl)-6-oxocyclohex-1-ene-1-carbonitrile] | 60 |
| CCOC1(c2ncccc2C(F)(F)F)C=C(C#N)C(=O)C(C)(C)C1 (stereo not drawn) [Compound 143, 3-ethoxy-5,5-dimethyl-6-oxo-3-[3-(trifluoromethyl)pyridin-2-yl]cyclohex-1-ene-1-carbonitrile] | 139 |
| COC1(c2nccs2)C=C(C#N)C(=O)C(C)(C)C1 (stereo not drawn) [Compound 144, 3-methoxy-5,5-dimethyl-6-oxo-3-(1,3-thiazol-2-yl)cyclohex-1-ene-1-carbonitrile] | 389 |
